Tests used:
[1] = tested on: Human lung cancer cell line A549; assay: MTT cell viability assay, A549; format: cell-based; settings: A549, 72 h, read-out: IC50 antiproliferative activity A549
Experimental: (§1) Cell viability was measured using the 3-(4,5-dimethylthiazol-2-yl)-2,5-diphenyltetrazolium bromide (MTT) assay and was expressed as a ratio to the absorbance value at 570 nm of the control cells.

[2] = tested on: Human liver cancer cell line HepG2; assay: MTT cell viability assay, HepG2; format: cell-based; settings: HepG2, 72 h, read-out: IC50 antiproliferative activity HepG2
Experimental: as §1

[3] = tested on: Human leukemia cell line K562; assay: MTT cell viability assay, K562; format: cell-based; settings: K562, 72 h, read-out: IC50 antiproliferative activity K562
Experimental: as §1

[4] = tested on: Human colon carcinoma cell line SW-620; assay: MTT cell viability assay, SW-620; format: cell-based; settings: SW-620, 72 h, read-out: IC50 antiproliferative activity SW-620
Experimental: as §1

[5] = tested on: Human glioblastoma cell line U251; assay: MTT cell viability assay, U251; format: cell-based; settings: U-251, 72 h, read-out: IC50 antiproliferative activity U251
Experimental: as §1

[6] = tested on: Human glioblastoma cell line U87; assay: MTT cell viability assay, U87; format: cell-based; settings: 72 h, read-out: IC50 antiproliferative activity U87
Experimental: Human GBM U87 cell line was purchased from the American Type Culture Collection (ATCC). Cells were cultured in Dulbecco’s modified Eagle’s medium (DMEM) supplemented with 10% fetal bovine serum (FBS) and maintained in a 37°C, 5% CO2 incubator. After cells were routinely passaged at 2- to 3-day intervals, experiments were carried out when the cells entered exponential growth phase.
as §1

[7] = tested on: Human glioma cell line SHG44; assay: MTT cell viability assay, SHG44; format: cell-based; settings: SHG-44, 72 h, read-out: IC50 antiproliferative activity SHG44
Experimental: as §1

[8] = tested on: Human glioma cell line LN229; assay: MTT cell viability assay, LN229; format: cell-based; settings: LN-229, 72 h, read-out: IC50 antiproliferative activity LN229
Experimental: as §1

[9] = tested on: Human umbilical vein endothelial cells HUVEC; assay: MTT cell viability assay, HUVEC; format: cell-based; settings: Homo sapiens, HUVEC, 72 h, read-out: IC50 HUVEC
Experimental: as §1

[10] = tested on: all eight cell lines; assay: Antiproliferative activity, panel of eight cancer cell lines (summary); format: cell-based; settings: Homo sapiens, read-out: IC50 values against all eight cell lines
Experimental: Cells (5 × 10^4) were seeded into 96-well plates and exposed to vehicle (PBS) or different concentrations of compounds for 72 h. Cell viability was measured using the 3-(4,5-dimethylthiazol-2-yl)-2,5-diphenyltetrazolium bromide (MTT) assay and was expressed as a ratio to the absorbance value at 570 nm of the control cells.
As DMC-HA was identified as a potent novel inhibitor for HDACs, its antiproliferative activities on a panel of cancer cell lines and normal cells were evaluated, including four glioma cell lines, and the results are shown in Table 2. Vorinostat and curcumin were also tested as positive controls. […].

[11] = Hepatic microsome stability assay, human; format: in vitro ADME; settings: human liver microsomes, NADPH, 37°C, pH 7.4
Experimental: (§2) Metabolic stability was assessed in the presence of human, mouse, and rat liver microsomes (XenoTech, Lenexa, KS, USA). All liquid dispenses and transfer steps were performed with the Freedom Evo automated liquid handler (Tecan US). Compound stock solutions were initially prepared in 100% DMSO and subsequently diluted in acetonitrile for the assay. The pH of the reactions was kept at 7.4 with potassium phosphate buffer. The reaction wells were prepared by adding microsomes to a well and allowed to warm to 37°C. Then, compound was added to each well. The reactions were […] by adding cofactor reduced nicotinamide adenine dinucleotide phosphate (NADPH) to the reaction well containing microsomes and compounds. Negative controls received buffer only. Immediately after reactions started, 0-min aliquots were promptly collected and mixed in a separate well with ice cold acetonitrile to quench the reactions. The remainder of the reaction volume was incubated at 37°C with shaking. An additional aliquot was collected at 60 min after the start of the reaction and promptly quenched with ice cold acetonitrile. Samples were vortexed and centrifuged at 3,500 rpm for 10 min. The amount of compound in the supernatant was determined by liquid chromatography–tandem mass spectrometry (LC/MS/MS) (Thermo Fischer Scientific, San Jose, CA, USA), and the percent of parent compound remaining after 60 min was calculated. Results are the mean of each reaction triplicate, normalized to the internal standard, and expressed as the percent of compound remaining after the incubation time.
(§3) Structures that are active in vitro may not be potent in vivo due to their susceptibility to metabolism in the body. We then thoroughly examined the liver microsomal metabolic stability of DMC-HA across three different species (Table 3). […] In addition, the half-life of DMC-HA in human microsome is generally two to three times longer than those in mice and rats. Collectively, the in vitro liver microsomal stability of DMC-HA is favorable, guaranteeing its further in vivo studies.

[12] = Hepatic microsome stability assay, mice; format: in vitro ADME; settings: mouse liver microsomes, NADPH, 37°C, pH 7.4
Experimental: as §2, §3

[13] = Hepatic microsome stability assay, rat; format: in vitro ADME; settings: rat liver microsomes, NADPH, 37°C, pH 7.4
Experimental: as §2, §3

[14] = tested on: acetylated histone H3 in U87 cells; assay: Western blot analysis for H3-histone acetylation; format: cell-based, Human; settings: various concentrations, 24 h
Experimental: U87 cells (5 × 10^5 cells/ml) in six-well plates were incubated with DMC-HA and lysed in radioimmunoprecipitation assay (RIPA) buffer containing protease and phosphatase inhibitors. Protein contents in the lysates were determined by Bradford’s assay, and 50 μg was separated by SDS polyacrylamide gel electrophoresis (SDS-PAGE) electrophoresis. Proteins were transferred to membranes and probed with human anti-acetylated H3 and anti-β actin antibodies as a loading control. Membranes were then labeled with the appropriate horseradish peroxidase (HRP)-conjugated immunoglobulin G (IgG), and protein bands were visualized using enhanced chemiluminescence. (Bio-Rad, Hercules, CA, USA).
Next, DMC-HA-induced acetylation of histone H3 in living cells was analyzed using Western blot method.

[15] = tested on: U87 tumor xenograft; settings: nude mice, 20 mg/kg once daily
From the text: Six-week-old BALB/c nude mice were purchased from Shanghai Experimental Animal Center of Chinese Academy of Science (Shanghai, China). All animal protocols were implemented according to the guidelines of the Association for Assessment and Accreditation of Laboratory Animal Care. U87 cells (3 × 10^6) were subcutaneously implanted into the right flank of mice. After 6 days of tumor growth, tumors grew to approximately 100 mm^3, and mice were randomly divided into three groups with nine animals in each group. […] The control group was intraperitoneally injected an equal volume of DMSO. Body weights and tumor volumes were measured every 2 days. After treatment, all of the mice were sacrificed, and the tumors were harvested, weighted, and photographed. The tumor volume was calculated according the formula: tumor volume = (length × width^2)/2.
U87 cells were subcutaneously inoculated into the right flank of mice.

[16] = biological target: SIRT1 (Homo sapiens, UniProt Q96EB6); assay: HDACs inhibition assay, SIRT1
SIRT1, sequence (Q96EB6 whole entry): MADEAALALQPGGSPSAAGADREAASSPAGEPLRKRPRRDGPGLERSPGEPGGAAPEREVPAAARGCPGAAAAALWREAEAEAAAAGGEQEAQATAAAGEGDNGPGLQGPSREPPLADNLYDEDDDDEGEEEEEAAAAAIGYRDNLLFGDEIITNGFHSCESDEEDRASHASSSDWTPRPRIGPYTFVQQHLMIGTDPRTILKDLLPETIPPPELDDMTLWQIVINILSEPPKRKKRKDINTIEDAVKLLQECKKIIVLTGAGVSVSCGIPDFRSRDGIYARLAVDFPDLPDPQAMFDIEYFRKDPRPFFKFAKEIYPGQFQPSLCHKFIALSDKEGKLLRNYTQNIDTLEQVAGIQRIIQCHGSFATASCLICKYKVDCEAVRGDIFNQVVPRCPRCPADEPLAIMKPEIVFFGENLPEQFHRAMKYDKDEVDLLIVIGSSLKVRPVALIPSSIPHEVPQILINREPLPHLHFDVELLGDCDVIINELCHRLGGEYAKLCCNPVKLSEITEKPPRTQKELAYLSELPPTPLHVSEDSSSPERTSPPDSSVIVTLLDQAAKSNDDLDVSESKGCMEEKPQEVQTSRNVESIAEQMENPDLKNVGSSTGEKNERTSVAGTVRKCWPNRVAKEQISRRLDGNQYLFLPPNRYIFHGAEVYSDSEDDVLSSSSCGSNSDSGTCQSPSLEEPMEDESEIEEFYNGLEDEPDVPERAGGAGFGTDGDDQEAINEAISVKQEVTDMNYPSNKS
Experimental: The inhibition assays for HDACs were carried out according to standard protocols. […] The reaction was stopped by the addition of 45 μl of 100 mM HEPES (pH 7.5) and 0.08% sodium dodecyl sulfate (SDS). The substrate and the product were then separated electrophoretically using a LabChip 3000 system (Caliper Life Sciences, Hopkinton, MA) with blue laser excitation and green fluorescence detection.

| Compound | IC50 [1] [µM] | IC50 [2] [µM] | IC50 [3] [µM] | IC50 [4] [µM] | IC50 [5] [µM] | IC50 [6] [µM] | IC50 [7] [µM] | IC50 [8] [µM] | IC50 [9] [µM] | IC50 [10] [µM] | microsomal CLint [11] [µL/min/mg] | half-life ([11]; read-out: Human Liver Microsomal Stability T1/2) [min] | microsomal CLint [12] [µL/min/mg] | half-life ([12]; read-out: Mice Liver Microsomal Stability T1/2) [min] | microsomal CLint [13] [µL/min/mg] | half-life ([13]; read-out: Rat Liver Microsomal Stability T1/2) [min] | acetylation of histone H3, dose dependence [14] | effects on the body weight [15] | toxicity during the administration period [15] | IC50 [16] [µM] |
| --- | --- | --- | --- | --- | --- | --- | --- | --- | --- | --- | --- | --- | --- | --- | --- | --- | --- | --- | --- | --- |
| COc1cc(/C=C/C(=O)CC(=O)/C=C/c2ccc(O)c(OC)c2)ccc1O [Curcumin, reference compound] | 32.9 ± 3.99 | 18.3 ± 3.21 | 16.4 ± 1.23 | 49.2 ± 7.42 | 27.6 ± 3.11 | 31.9 ± 2.9 | 24.6 ± 4.52 | 21.9 ± 4.65 | 58.5 ± 7.92 | 16.4 to 49.2 | 82 | 17.2 | 92.9 | 15.3 | 138 | 10.4 | – | – | – | – |
| O=C(CCCCCCC(=O)Nc1ccccc1)NO [Vorinostat, suberoylanilide hydroxamic acid, reference compound] | – | – | – | – | – | – | – | – | – | – | – | – | – | – | – | – | dose dependently increased the acetylation of histone H3 | no effects on the body weight | no observable toxicity | > 10 |
